{"source": "patent US20260028390A1", "about": "“ALPHA1-ANTITRYPSIN FOR USE IN THE TREATMENT OF DISEASES OR DISORDERS OF THE NERVOUS SYSTEM SUCH AS CHRONIC INFLAMMATORY DEMYELINATING POLYNEUROPATHY” (Ageronix SA, priority 2022, published 2026)", "key": {"IL-6": {"system": "IL-6", "experiment": "Human IL-6 immunoassay on SH-SY5Y cell supernatant", "format": "cell-based", "conditions": "medium from cells treated with AAT vs 6-OHDA induced, not significant", "description": "(§1) Cells were treated for 24 hours with the neurotoxin 6-hydroxydopamine (6-OHDA, Sigma Aldrich 162957) at 50, 100 μM concentrations alone or in combination with AAT 25 μM (AAT plasma derived, Sigma Aldrich batch A9024). Cells treated with AAT alone or in combination with 6-OHDA for 24 hours, were then incubated with fresh AAT for additional 24 hours. Control cells were treated with PBS.\nHuman 11-6 immunoassay (R&D D6050) was performed on cells supernatant. Briefly, 40000 cells were plated in 24-well plate and treated the day after as described in paragraph “Cells and treatment”. At the end of the treatment, cells were washed with PBS and incubated with 2% FBS medium for 24 hours, then cell culture supernatants were collected and centrifuged to remove particulates. Assay procedure was performed as described by manufactured instructions, on standard and samples duplicates. Absorbance was measured at 450 nm using SpectraMax iD3 Microplate Reader. A standard curve was prepared from seven IL-6 standard dilutions and IL-6 sample concentrations determined."}, "[1]": {"system": "C3-PMP22 transgenic mice (CMT1A)", "experiment": "Sciatic nerve histology, CMT1A mouse study (50 mg/kg twice daily)", "format": "in vivo", "conditions": "8 weeks old", "description": "Animals were split in 3 groups (wild-type control (subcutaneous 0.9% NaCl), CMT1A-vehicle (subcutaneous 0.9% NaCl), CMT1A-human alpha-1 antitrypsin (subcutaneous, twice daily, 50 mg/kg per injection)) of 3 mice each (3 weeks old males of 18±2.5 g at the beginning of study) and all went through the following protocol after 7 days of acclimation on site.\nOn the first and last day of treatment, the neuromuscular performance of animals was tested with a rotarod test, grip test and sciatic nerve electrophysiology test. After the last treatment at 8 weeks, these tests were repeated, and animals were sacrificed and the left sciatic nerve was sampled for histological evaluation of the number and size of […]."}, "SH-SY5Y cells": {"system": "SH-SY5Y cells", "experiment": "Cell growth (cell count, morphology) of SH-SY5Y treated with 6-OHDA", "format": "cell-based", "conditions": "6-OHDA combined with AAT 25 μM, day 4 of culture, p=0.003", "description": "SH-SY5Y cells, which are commonly used to model neurodegenerative disorders, were used to produce an in vitro Parkinson's model (Que R, et al., 2021, Front. Immunol. 12). Cells were cultured in DMEMF12/Glutamax supplemented with 10% FBS.\nas §1\nAt day 0 cells were plated in equally number in 24-well plate, the day after they were treated as described above, and final total cell count was performed at day 4 of culture (cell growth). Cell viability was assessed with Cell Counting Kit-8 (CCK-8; Sigma Aldrich 96992). After treatments, cells were incubated with 10 μl of CCK-8 solution for 2 hours in the incubator. Absorbance was measured at 450 nm using SpectraMax iD3 Microplate Reader. Experiments were performed in triplicate."}, "[2]": {"biological_target": "T1, Recombinant Human TACE/ADAM17 (Homo sapiens, UniProt P78536)", "T1 construct": "purchased R&D Systems 930-ADB-010", "T1 sequence (P78536 215-671 limits assumed)": "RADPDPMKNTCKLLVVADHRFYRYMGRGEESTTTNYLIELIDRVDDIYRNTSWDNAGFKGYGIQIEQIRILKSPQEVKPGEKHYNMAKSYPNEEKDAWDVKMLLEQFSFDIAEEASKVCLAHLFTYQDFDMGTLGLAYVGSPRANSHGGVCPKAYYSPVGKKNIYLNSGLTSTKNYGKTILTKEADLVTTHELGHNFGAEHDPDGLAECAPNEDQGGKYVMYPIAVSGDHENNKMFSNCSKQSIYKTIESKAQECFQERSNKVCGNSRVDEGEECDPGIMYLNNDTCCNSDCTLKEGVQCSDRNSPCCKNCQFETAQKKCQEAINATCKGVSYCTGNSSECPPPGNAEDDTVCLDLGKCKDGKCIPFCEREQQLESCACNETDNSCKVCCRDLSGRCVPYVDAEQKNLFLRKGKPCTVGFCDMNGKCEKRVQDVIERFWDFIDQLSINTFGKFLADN", "experiment": "Cell free TACE/ADAM17 activity", "format": "biochemical", "conditions": "cell-free assay; AAT Sigma Aldrich, batch A6150; read-out: IC50 of TACE activity inhibition", "description": "TACE activity and its inhibition by human AAT (AAT) was performed with Recombinant Human TACE/ADAM17 kit (930-ADB and ES003, R&D Systems) in black 96-well immuno plates (437111, ThermoFisher Scientific). The enzymatic activity of TACE/ADAM17 was measured by mixing 0.005 μg of rhTACE with 10 μM of Mca-PLAQAV-Dpa-RSSSR-NH2 fluorogenic peptide substrate III in assay buffer (25 mM Tris, 2.5 μM ZnCl2, 0.005% Brij-35 (w/v), pH 9.0) to a final volume of 100 μl. AAT (Sigma Aldrich, batch A6150) was resuspended in water (vehicle), control TACE/ADAM17 activity was assessed in presence of the vehicle (amount used for AAT 100 μM). AAT was added at different concentration (0, 6.25, 12.5, 25, 50 and 100 μM) to assess its dose-dependent inhibition of TACE/ADAM17. All conditions were performed in triplicates. Activity was measured as relative fluorescent unit (RFU) in a kinetic mode (9 time points over 5 min) with a SpectraMax iD3 Microplate Reader (low PMT gain, is exposition, top read at 1 mm, wavelength: excitation 320 nm, emission 405 nm). Bar graph as percentage of control activity was obtained by averaging the values obtained over the 5 min for each of the condition.\nTACE activity is assessed according to the manufacturer's instruction (Recombinant Human TACE/ADAM17 kit, 930-ADB, R&D Systems) in kinetic mode, without or with different AAT concentration. All conditions were done in triplicates and are shown as mean±SD (FIGS. 5A, 5B and 5C).\nADAM-17 activity and its inhibition by human peptide 8 was measured with Recombinant Human ADAM-17 kit (Recombinant Human TACE/ADAM17 Protein, CF: 930-ADB-010 and Mca-PLAQAV-Dpa-RSSSR-NH2 Fluorogenic Peptide Substrate:ES003; R&D Systems) in black 96-well immunoplates (437111; Thermo Fisher Scientific). The enzymatic activity of ADAM-17 was measured by mixing 0.005 μg of rhADAM-17 with 10 μM of Mca-PLAQAV-Dpa-RSSSR-NH2 fluorogenic peptide substrate III in assay buffer (25 mM Tris, 2.5 μM ZnCl2, 0.005% Brij-35 (w/v), pH 9.0) to a final volume of 100 μL. Peptide 8 (Syngene) was dissolved in DMSO and diluted to the desired concentration in assay buffer. Control ADAM-17 activity was assessed in the presence of the assay buffer. […] All conditions were performed in triplicate. Activity was measured as relative fluorescent units (RFU) in endpoint mode (5 min) with a SpectraMax iD3 Microplate Reader (automatic PMT gain, wavelengths: excitation 320 nm, emission 405 nm)."}, "plasma TMPRSS5": {"system": "plasma TMPRSS5", "experiment": "Plasma TMPRSS5, CIDP mouse model", "format": "in vivo", "conditions": "CIDP + AAT", "description": "C57BL/6 mice were received at 8 weeks of age and housed under controlled conditions for the duration of the study. Three groups of 4 animals each were assigned to the following subcutaneous treatments twice daily at 7:00 AM and 7:00 PM for 2 weeks, from 20 to 35 days after the start of disease induction: • Wild type (WT) mice receiving the vehicle, 0.9% NaCl (positive control) • CIDP mice receiving the vehicle, 0.9% NaCl (negative control) • CIDP mice receiving human AAT (AAT), 50 mg/kg per injection\nOn the day preceding disease induction (Day 1), on the first (Day 20) and on the last (Day 35) treatment day, animals were subjected to blood samplings for the determination of neurofilament light chain (NfL), tumour necrosing factor alpha (TNFα) and TMPRSS5 levels, as described in FIG. 20. In addition, plasma levels of AAT were evaluated on the last treatment day."}, "[3]": {"conditions": "CMT1A + AAT, 50 mg/kg twice daily sc"}, "[4]": {"conditions": "CMT1A mice, AAT 50 mg/kg sc twice daily"}}, "data": [{"substance": "alpha1-antitrypsin (AAT) protein", "values": [{"measurement": "IL-6 in cell supernatant", "setting": "IL-6", "result": "less concentration"}, {"measurement": "axonal diameter compared to the vehicle treated group", "setting": "[1]; [3]", "result": "significant increase"}, {"measurement": "g-ratio compared to the vehicle treated group", "setting": "[1]; [3]", "result": "decrease"}, {"measurement": "total number of axons per surface compared to the vehicle group", "setting": "[1]; [3]", "result": "Slight increase"}, {"measurement": "Sciatic nerve histology, Axonal diameter (Mean ± SEM)", "setting": "[1]; [4]", "result": "2.53 ± 0.15 ^††† μm"}, {"measurement": "Sciatic nerve histology, Axons/100 μm^2 (Mean ± SEM)", "setting": "[1]; [4]", "result": "39.33 ± 4.81"}, {"measurement": "Sciatic nerve histology, g-ratio (Mean ± SEM)", "setting": "[1]; [4]", "result": "0.63 ± 0.009 ^†††"}, {"measurement": "number of cells counted compared to 6-OHDA alone", "setting": "SH-SY5Y cells", "result": "significantly increased"}, {"measurement": "IC50", "setting": "[2]", "result": 15.3, "unit": "µM"}, {"measurement": "plasma TMPRSS5 concentration compared to the vehicle group", "setting": "plasma TMPRSS5", "result": "No statistically significant differences"}]}]}
